Source: patent publication US20260283924A1, “TOPICAL COMPOSITIONS FOR PROMOTING HAIR GROWTH” (ESTETRA SRL, priority 2023, published 2026)

Columns and labels:
[1] = test system: human anagen VI scalp HFs; assay: LDH release into the medium (cytotoxicity), healthy donor hair follicle organ culture; format: cell-based; settings: all tested concentrations (300 nM, 3 μM, 30 μM)
Protocol: 12-44 full-length frontotemporal hair follicles (HF) were obtained from four healthy human female donors >50 years old. […] Donor 2:29; Donor 3:44; Donor 4:32). After microdissection from skin as described in the art (Edelkamp et al., Methods Mol Biol, 2020, 2154:105-119; and Langan et al., Exp Dermatol, 2015 December; 24(12):903-1), HFs were placed in adequate culture medium and allowed a 24 h rest period to allow them to recover from the trauma of microdissection. Test substance (either vehicle (0.3% EtOH) or E4 at concentrations of 30 μM, 3 μM or 300 nM) was added to the medium at the end of the 24 h. Total culturing time was 5-9 days depending on the stage of the HFs in the vehicle group. The experimental design for a 6-days HF organ culture experiment is depicted in FIG. 9.
LDH is released from the cytoplasm of damaged cells into the culture medium. Therefore, the cytotoxicity of agents can be estimated based on the activity of LDH present in the culture medium using a colorimetric assay (Cytotoxicity Detection Kit [LDH], Roche) as described (Gherardini et al Int J Cosmet Sci, 2019 April; 41(2):164-182). The measurements were performed on supernatants collected on days respective to each culture and normalized to blank.
For the maximum release, HFs were treated with 1% Triton X 100 in vehicle medium at 37° C. for 30 minutes in order to induce maximum LDH release into the medium.

[2] = test system: terminal and intermediate hair follicles from affected and non-affected areas of FPHL donors; assay: Female pattern hair loss (FPHL) donor hair follicle organ culture (ex vivo model), Example 9; format: cell-based, human; settings: 3 μM; for microscopic hair cycle staging: anagen: HFs from non-affected (terminal) and affected (terminal and intermediate) scalp, preliminary, 2 donors; for hair matrix keratinocytes proliferation: terminal HFs from non-affected and affected scalp; for versican expression: terminal and intermediate HFs from non-affected scalp
Description: Example 7 is repeated for female donor subjects suffering from pattern hair loss (FPHL), with a few modifications. In brief, terminal and intermediate hair follicles (HF) from affected (vertex) and non-affected (occipital) areas were obtained from female donors diagnosed to have FPHL (FIG. 34). After microdissection from skin as described in the art (Edelkamp et al., Methods Mol Biol, 2020, 2154:105-119; and Langan et al., Exp Dermatol, 2015 December; 24(12):903-1), HFs are placed in adequate culture medium and allowed a 24 h rest period to allow them to recover from the trauma of microdissection. Test substance (either vehicle (0.03% EtOH) or E4 at concentrations of 3 μM) was added to the medium at the end of the 24 h. Total culturing time was 3-5 days depending on the stage of the HFs in the vehicle group. The experimental design is depicted in FIG. 35. The same parameters as those described in Example 7 were investigated.
[…] Three additional donors still have to be collected.

[3] = Antioxidant activity measured with Skin-Biosense sensor; settings: H2O2 5 mM
Protocol: The antioxidant activity of E4 was evaluated using the Skin-Biosense® sensor, a technology developed by Qima Life Sciences (Gencay, France). This electrochemical sensor measures the electron transfer between two conductive elements: the sensor and a solution of H2O2. The H2O2 solution is used as a marker for the determination of the detoxification power: as H2O2 is one of the most oxidizing non-radical species, any molecule capable of decreasing its concentration can be considered as an antioxidant. When a sample is in the presence of H2O2, all its antioxidative species spontaneously react with it and decrease its quantity. As the area of the peak measured by the sensor is directly proportional to H2O2 concentration, the detoxifying activity of a compound is evaluated by its modulation of the peak area.
H2O2 5 mM in electrolytic ethanol solution was mixed with E4 in electrolytic ethanol solutions at several concentrations (0.16-0.5-1.6-5-16-50 mM), and the H2O2 oxidation peaks area were measured. The power of the antioxidant activity was calculated by comparing the peak area of the H202 solution with the peak area of the H2O2 solution mixed with an E4 solution.

[4] = test system: occipital hair follicles (healthy donor); assay: Healthy donor hair follicle organ culture (ex vivo model), Example 8; format: cell-based, human; settings: for K15 expression in the suprabulbar outer root sheath / number of cells (K15) in the suprabulbar outer root sheath: 300 nM; for density of cells in the dermal cup of anagen HFs / density of cells in the dermal papilla / density of cells in the dermal papilla stalk / hair matrix keratinocyte proliferation / total number of cells in the dermal cup of anagen HFs / total number of cells in the dermal papilla / total number of cells in the dermal papilla stalk: 3 μM
Protocol: In brief, 24 full-length occipital hair follicles (HF) were obtained from one healthy donor. […] Test substance (either vehicle (0.03% EtOH), E2 at concentration of 300 nM or E4 at concentrations of 3 μM or 300 nM) was added to the medium at the end of the 24 h. Total culturing time was 5 days depending on the stage of the HFs in the vehicle group. The experimental design is depicted in FIG. 23.

[5] = test system: Female wild-type (C57BL/6J) mice; assay: In vivo LPS-induced delayed wound healing model: uterine weight and morphology (systemic effect), Example 4; settings: topical over wounds, 60 μl total, day -1 to day 4; uteri at day 5
[6] = intermediate HFs from affected scalp
[7] = intermediate HFs from non-affected area
[8] = intermediate HFs from non-affected scalp
[9] = intermediate HFs from non-affected scalp, listed as estetrol
[10] = terminal HFs from non-affected scalp
[11] = terminal HFs from non-affected scalp, listed as estetrol
[12] = 300 nM and 3 μM, listed as Estetrol

In the case of `C[C@]12CC[C@@H]3c4ccc(O)cc4CC[C@H]3[C@@H]1[C@@H](O)[C@@H](O)[C@@H]2O` [Formulation E4, 1,3,5 (10)-estratrien-3,15alpha,16alpha,17beta-tetrol], the “HF cytotoxicity (LDH release into the medium)” value [1] is reported as “did not induce HF cytotoxicity”, the “HF cytotoxicity (LDH release into the medium)” value ([1]; listed as Estetrol) is reported as “does not induce LDH release into the medium” and the “hair matrix keratinocytes apoptosis” value [2] is reported as “without affecting hair matrix keratinocytes apoptosis”. The “dermal papilla inductivity (versican expression and alkaline phosphatase activity)” value ([2]; HFs from affected area) was “not strikingly altered”, the “microscopic hair cycle staging: anagen” value [2] was “prolonged anagen” and the “microscopic hair cycle staging: anagen” value ([2]; listed as estetrol) was “prolongs anagen”. The “density of dermal papilla cells” value [2, 6] was “tendentially increased the density”, the “total number of dermal papilla cells” value [2, 6] was “tendentially increased” and the “density of dermal papilla cells” value [2, 7] was “tendentially decreases the density”. For the same compound, the “total number of cells in the dermal cup” value [2, 7] was “increases”, the “K15 expression, bulge basal layer” value [2, 8] was “tendentially increased K15 expression” and the “area size of the dermal papilla” value [2, 8] was “tendentially increased”. The “density of dermal papilla stalk cells” value [2, 8] was “tendentially decreased the density of dermal papilla stalk cells”, the “total number of cells of the dermal papilla” value [2, 8] was “tendentially increased the total number of cells” and the “area size of the dermal papilla” value [2, 9] was “increases”. For the same compound, the “density of dermal papilla stalk cells” value [2, 9] was “tendentially decreased”, the “total number of cells of the dermal papilla” value [2, 9] was “increases the total DP cell number” and the “proliferation of K15+ cells, bulge basal layer” value ([2]; terminal HFs from affected scalp) was “increased proliferation of K15+ cells”. For the same compound, the “hair matrix keratinocytes proliferation” value [2] was “tendentially increased hair matrix keratinocytes proliferation”, the “hair matrix keratinocytes proliferation” value ([2]; listed as estetrol) was “tendentially increases hair matrix keratinocytes proliferation” and the “proliferation of K15+ cells, suprabulbar outer root sheath” value ([2]; terminal HFs from non-affected and intermediate HFs from affected scalp) was “increased proliferation of K15+ cells”. For the same compound, the “density of dermal papilla stalk cells” value ([2]; terminal HFs from non-affected area) was “without influencing their density”, the “K15 expression, suprabulbar outer root sheath” value [2, 10] was “tendentially increased K15 expression” and the “area size of the dermal papilla stalk” value [2, 10] was “significantly decreased”. For the same compound, the “number of K15 positive cells, suprabulbar outer root sheath” value [2, 10] was “tendentially increased”, the “total number of cells in the dermal cup” value [2, 10] was “significantly reduced the total number of cells in the dermal cup” and the “total number of cells of the dermal papilla stalk” value [2, 10] was “significantly decreased the total number of cells”. The “area size of the dermal papilla stalk” value [2, 11] was “significantly decreases”, the “total number of cells in the dermal cup” value [2, 11] was “significantly reduces” and the “total number of cells of the dermal papilla stalk” value [2, 11] was “significantly decreases the total number”. For the same compound, the “alkaline phosphatase activity (dermal papilla inductivity)” value ([2]; terminal and intermediate HFs from non-affected area) was “tendential increase”, the versican expression [2] was “tendentially increased versican expression” and the versican expression ([2]; listed as estetrol) was “tendentially increases versican expression”. For the same compound, the “antioxidant activity (in words)” value ([3]; E4 0.16-50 mM) was “potent antioxidant activity”, the antioxidant activity ([3]; highest E4 concentration, 50000 µM) was 100% and the “antioxidant activity, mean power” value ([3]; molar ratio E4/H2O2 of 1) was 77.5%. The “K15 expression in the suprabulbar outer root sheath” value [4] was “tendentially increased”, the “number of cells (K15) in the suprabulbar outer root sheath” value [4] was “tendentially increased” and the “area of the dermal papilla” value ([4]; 300 nM and 3 μM) was “increased”. The “hair shaft production (reduction vs vehicle)” value ([4]; 300 nM and 3 μM) was “tendentially”, the “microscopic hair cycle: anagen” value ([4]; 300 nM and 3 μM) was “maintained HFs in anagen” and the “number of CD34+ cells in the suprabulbar outer root sheath” value ([4]; 300 nM and 3 μM) was “decreased”. The “area of the dermal papilla” value [4, 12] was “increases the area”, the “microscopic hair cycle: anagen” value [4, 12] was “maintain hair follicles in anagen” and the “number of CD34+ cells in the suprabulbar outer root sheath” value [4, 12] was “decreases the number of CD34+ cells”. For the same compound, the “K15 expression in the suprabulbar outer root sheath” value ([4]; listed as estetrol) was “tendentially increase K15 expression”, the “number of cells (K15) in the suprabulbar outer root sheath” value ([4]; listed as estetrol) was “tendentially increase” and the “density of cells in the dermal cup of anagen HFs” value [4] was “significantly decreased”. The “density of cells in the dermal papilla” value [4] was “tendentially decreased”, the “density of cells in the dermal papilla stalk” value [4] was “decreased” and the “hair matrix keratinocyte proliferation” value [4] was “tendentially increased”. The “total number of cells in the dermal cup of anagen HFs” value [4] was “significantly decreased”, the “total number of cells in the dermal papilla” value [4] was “tendentially decreased” and the “total number of cells in the dermal papilla stalk” value [4] was “decreased”. The “microscopic hair cycle: anagen maintenance” value ([4]; 3 μM compared with 300 nM) was “even more prominently”, the “density of cells in the dermal cup of anagen HFs” value ([4]; listed as Estetrol) was “significantly decreases” and the “density of cells in the dermal papilla” value ([4]; listed as Estetrol) was “tendentially decreases”. For the same compound, the “density of cells in the dermal papilla stalk” value ([4]; listed as Estetrol) was “decreases the density of cells in the dermal papilla stalk”, the “hair matrix keratinocyte proliferation” value ([4]; listed as Estetrol) was “increased” and the “total number of cells in the dermal cup of anagen HFs” value ([4]; listed as Estetrol) was “significantly decreases”. For the same compound, the “total number of cells in the dermal papilla” value ([4]; listed as Estetrol) was “tendentially decreases”, the “total number of cells in the dermal papilla stalk” value ([4]; listed as Estetrol) was “tendentially” and the “uterine weight and morphology” value [5] was “affects uterine weight in a dose-dependent manner”.
